Source: patent publication US20160033533A1, “2-HYDROXYGLUTARATE AS A BIOMARKER FOR CHRONIC HYPOXIA” (MEMORIAL SLOAN KETTERING CANCER CENTER, priority 2011, published 2016)

Test system: SF188 cells
Test: Viability of glutamine-starved hypoxic SF188 cells (trypan blue dye exclusion)
Assay type: cell-based, human
Conditions: 0.5% O2, 48 h, glutamine-deficient medium supplemented with 7 mM dimethyl α-ketoglutarate
Procedure: In FIG. 2(A), SF188 cells were cultured for 24 h in complete medium equilibrated with either 21% O2 (Normoxia) or 0.5% O2 (Hypoxia). Culture medium was then removed from cells and analyzed for glutamine levels which were compared to the glutamine levels in fresh medium. Data are the mean±SEM of 3 independent experiments. […] Cells were cultured in complete medium equilibrated with 0.5% O2 for 24 h, followed by an additional 48 h at 0.5% O2 in either complete medium (+Gln), glutamine-deficient medium (−Gln), or glutamine-deficient medium supplemented with 7 mM dimethyl α-ketoglutarate (−Gln+αKG). All medium was pre-conditioned in 0.5% O2. Cell viability was determined by trypan blue dye exclusion. Data are the mean and range from 2 independent experiments. FIG. 2(C) depicts a model of the pathways for cit+4 and cit+5 production from [U-^13C]glutamine (glutamine+5). […] Cells were cultured for 24 h as in (A), followed by 4 h of culture in glutamine-deficient medium supplemented with 4 mM [U-^13C]glutamine. ^13C enrichment in cellular citrate was quantitated with GC-MS. […]
SF188 and RCC4 cells were cultured in Dulbecco's Modified Eagle's Medium (DMEM; Invitrogen 11965), 10% fetal bovine serum (FBS; Gemini Biosystems), 100 units/ml Penicillin, 100 ug/ml Streptomycin, 25 mM glucose, and 6 mM L-glutamine. […] Viability was determined by trypan blue exclusion. […]

SMILES: COC(=O)CCC(=O)C(=O)OC [dimethyl α-ketoglutarate]
- cell viability upon glutamine withdrawal: rescued the defect in cell viability
